Measured values as given in ChEMBL document CHEMBL5649169 (ChemMedChem, 2018).

Tests used:
[1] = target: Lysosome-associated membrane glycoprotein 2 (Homo sapiens) (UniProt P13473)
[2] = target: Serine palmitoyltransferase 1 (Homo sapiens) (UniProt O15269)
[3] = target: Ubiquitin carboxyl-terminal hydrolase 5 (Homo sapiens) (UniProt P45974)
[4] = target: Eukaryotic translation initiation factor 3 subunit L (Homo sapiens) (UniProt Q9Y262)
[5] = target: U2 snRNP-associated SURP motif-containing protein (Homo sapiens) (UniProt O15042)
[6] = target: Pyruvate kinase PKM (Homo sapiens) (UniProt P14618)
[7] = target: Serine/threonine-protein kinase N2 (Homo sapiens) (UniProt Q16513)
[8] = target: Serine/threonine-protein kinase 16 (Homo sapiens) (UniProt O75716)
[9] = target: Deoxyribose-phosphate aldolase (Homo sapiens) (UniProt Q9Y315)
[10] = target: CDK5 and ABL1 enzyme substrate 1 (Homo sapiens) (UniProt Q8TDN4)
[11] = target: Puromycin-sensitive aminopeptidase (Homo sapiens) (UniProt P55786)
[12] = organism: Homo sapiens
[13] = target: Cytochrome b-c1 complex subunit 1, mitochondrial (Homo sapiens) (UniProt P31930)
[14] = target: Tyrosine-protein kinase FRK (Homo sapiens) (UniProt P42685)
[15] = target: CDP-diacylglycerol--inositol 3-phosphatidyltransferase (Homo sapiens) (UniProt O14735)
[16] = target: Transformer-2 protein homolog beta (Homo sapiens) (UniProt P62995)
[17] = target: X-ray repair cross-complementing protein 6 (Homo sapiens) (UniProt P12956)
[18] = target: Aspartate aminotransferase, cytoplasmic (Homo sapiens) (UniProt P17174)
[19] = target: Mitogen-activated protein kinase 1 (Homo sapiens) (UniProt P28482)
[20] = target: Eukaryotic translation initiation factor 3 subunit E (Homo sapiens) (UniProt P60228)
[21] = target: T-complex protein 1 subunit delta (Homo sapiens) (UniProt P50991)
[22] = target: Large ribosomal subunit protein uL5 (Homo sapiens) (UniProt P62913)
[23] = target: Proliferation marker protein Ki-67 (Homo sapiens) (UniProt P46013)
[24] = target: Alkyldihydroxyacetonephosphate synthase, peroxisomal (Homo sapiens) (UniProt O00116)
[25] = target: Cytochrome c oxidase subunit 6C (Homo sapiens) (UniProt P09669)
[26] = target: Translocator protein (Homo sapiens) (UniProt P30536)
[27] = target: 14-3-3 protein epsilon (Homo sapiens) (UniProt P62258)
[28] = target: Protein transport protein Sec16A (Homo sapiens) (UniProt O15027)
[29] = target: Serine/threonine-protein kinase ATR (Homo sapiens) (UniProt Q13535)
[30] = target: Histone deacetylase 2 (Homo sapiens) (UniProt Q92769)
[31] = target: Inner centromere protein (Homo sapiens) (UniProt Q9NQS7)
[32] = target: Proliferation-associated protein 2G4 (Homo sapiens) (UniProt Q9UQ80)
[33] = target: tRNA (guanosine(18)-2'-O)-methyltransferase TARBP1 (Homo sapiens) (UniProt Q13395)
[34] = target: Ras-related protein Rab-8A (Homo sapiens) (UniProt P61006)
[35] = target: Phosphoprotein associated with glycosphingolipid-enriched microdomains 1 (Homo sapiens) (UniProt Q9NWQ8)
[36] = target: Crk-like protein (Homo sapiens) (UniProt P46109)
[37] = target: Tubulin beta-4B chain (Homo sapiens) (UniProt P68371)
[38] = target: Dual specificity mitogen-activated protein kinase kinase 3 (Homo sapiens) (UniProt P46734)
[39] = target: Lupus La protein (Homo sapiens) (UniProt P05455)
[40] = target: Inhibitor of nuclear factor kappa-B kinase subunit epsilon (Homo sapiens) (UniProt Q14164)
[41] = target: Conserved oligomeric Golgi complex subunit 4 (Homo sapiens) (UniProt Q9H9E3)
[42] = target: Translocon-associated protein subunit gamma (Homo sapiens) (UniProt Q9UNL2)
[43] = target: Large ribosomal subunit protein uL2 (Homo sapiens) (UniProt P62917)
[44] = target: Ribonuclease H1 (Homo sapiens) (UniProt O60930)
[45] = target: Mitochondrial import inner membrane translocase subunit TIM44 (Homo sapiens) (UniProt O43615)
[46] = target: Galectin-3-binding protein (Homo sapiens) (UniProt Q08380)
Further: assay method not described here.

Work on `Cc1ccc(C(=O)Nc2cccc(C(F)(F)F)c2)cc1Nc1nc(-c2cccnc2)nc2c1cnn2C` yielded an ED50 [1] of 0.0378 µM, an ED50 [2] of 0.613 µM and an ED50 [3] of 130 µM. It also gave an ED50 [4] of 2.5 µM, an ED50 [5] of 0.0194 µM and an ED50 [6] of 5.83 µM. It also gave an ED50 [7] of 0.0969 µM, an ED50 [8] of 0.13 µM and an ED50 [9] of 3.14 µM. For the same compound, the ED50 [10] was 0.993 µM, the ED50 [11] was 0.0863 µM and the ED50 [12] was 8.11 µM. The ED50 [13] was 65.5 µM, the ED50 [14] was 2.16 µM and the ED50 [15] was 0.000993 µM. The ED50 [16] was 0.0121 µM, the ED50 [17] was 0.0358 µM and the ED50 [18] was 6.82 µM. The ED50 [19] was 0.027 µM, the ED50 [20] was 24.5 µM and the ED50 [21] was 1.63 µM. The ED50 [22] was 0.0395 µM, the ED50 [23] was 4.64 µM and the ED50 [24] was 0.0016 µM. The ED50 [25] was 16.2 µM, the ED50 [26] was 0.103 µM and the ED50 [27] was 6.15 µM. It also gave an ED50 [28] of 0.00675 µM, an ED50 [29] of 4.47 µM and an ED50 [30] of 18.9 µM. The ED50 [31] was 3.42 µM, the ED50 [32] was 162 µM and the ED50 [33] was 18.4 µM. The ED50 [34] was 23.3 µM, the ED50 [35] was 16.8 µM and the ED50 [36] was 0.0843 µM. It also gave an ED50 [37] of 2.68 µM, an ED50 [38] of 0.00369 µM and an ED50 [39] of 1.94 µM. It also gave an ED50 [40] of 0.123 µM, an ED50 [41] of 4.61 µM and an ED50 [42] of 12.7 µM. For the same compound, the ED50 [43] was 0.0503 µM, the ED50 [44] was 12.7 µM and the ED50 [45] was 0.445 µM. For the same compound, the ED50 [46] was 9.93 µM.

`Cc1ccc(C(=O)Nc2cccc(C(F)(F)F)c2)cc1Nc1nc(-c2cccnc2)nc2nn(C)cc12` gave an ED50 [1] of 1.72 µM, an ED50 [2] of 0.107 µM and an ED50 [3] of 0.00988 µM. It also gave an ED50 [4] of 0.0714 µM, an ED50 [5] of 1.91 µM and an ED50 [6] of 0.174 µM. For the same compound, the ED50 [7] was 0.0506 µM, the ED50 [8] was 0.0232 µM and the ED50 [9] was 2.45 µM. It also gave an ED50 [10] of 0.175 µM, an ED50 [11] of 0.0907 µM and an ED50 [12] of 13.1 µM. It also gave an ED50 [13] of 0.00513 µM, an ED50 [14] of 8.67 µM and an ED50 [15] of 0.0581 µM. It also gave an ED50 [16] of 0.537 µM, an ED50 [17] of 0.0567 µM and an ED50 [18] of 0.842 µM. For the same compound, the ED50 [19] was 0.0471 µM, the ED50 [20] was 0.512 µM and the ED50 [21] was 26.8 µM. It also gave an ED50 [22] of 1.63 µM, an ED50 [23] of 0.0399 µM and an ED50 [24] of 0.486 µM. For the same compound, the ED50 [25] was 0.012 µM, the ED50 [26] was 0.0238 µM and the ED50 [27] was 0.0477 µM. It also gave an ED50 [28] of 0.0052 µM, an ED50 [29] of 0.0106 µM and an ED50 [30] of 0.0881 µM. The ED50 [31] was 0.229 µM, the ED50 [32] was 0.365 µM and the ED50 [33] was 63.1 µM. For the same compound, the ED50 [34] was 3690 µM, the ED50 [35] was 1.77 µM and the ED50 [36] was 10.2 µM. The ED50 [37] was 0.0012 µM, the ED50 [38] was 2770 µM and the ED50 [39] was 0.0279 µM. The ED50 [40] was 9.31 µM, the ED50 [41] was 0.0222 µM and the ED50 [42] was 0.0505 µM. For the same compound, the ED50 [43] was 0.121 µM, the ED50 [44] was 385 µM and the ED50 [45] was 0.31 µM. For the same compound, the ED50 [46] was 0.0814 µM.
